The subject of this test is HIV-1 single-round infectious reporter virus. The test is described as follows: Single-round infectious HIV-1 luciferase reporter virus infection of HeLa CD4 cells (antiviral EC50). It counts as cell-based. Particulars: Human immunodeficiency virus 1, HeLa, 72 h, read-out: EC50 Group from Table 1. An outline of the steps: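 HeLa CD4 cells infected with env-pseudotyped, luciferase-reporter single-round HIV-1 (MOI ~0.01) in presence of compound (final ≤10 μM), harvested 72 h at 37 °C. Luciferase luminescence expressed as percent inhibition versus no-compound control; EC50 from 10-concentration four-parameter logistic fit.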

pEC50: −log10 of the molar value.

Turning to `COc1cnc(-n2cnc(C)n2)c2[nH]cc(C(=O)C(=O)N3CCC(=C(c4ccccc4)c4nnc(C(C)(C)C)o4)CC3)c12` [Example 134, 1-[4-(1-Phenyl-1-(5-tert-butyl-1,3,4-oxadiazol-2-yl)-methylene)-piperidin-1-yl]-2-[4-methoxy-7-(3-methyl-1,2,4-triazol-1-yl)-6-azaindol-3-yl]-ethane-1,2-dione], the pEC50 (commonly −log10 of the EC50, conventionally taken in molar units) is over 6.00.
As for `O=C(C(=O)N1CCC(=C(Br)c2ccccc2)CC1)c1c[nH]c2c(Cl)ccnc12` [Example 107, 1-[4-(Bromo-phenyl-methylene)-piperidin-1-yl]-2-(7-chloro-1H-pyrrolo[3,2-b]pyridin-3-yl)-ethane-1,2-dione], the pEC50 is over 6.00.
For the molecule `N#CC(=C1CCN(C(=O)C(=O)c2c[nH]c3c(-c4cncc(N)n4)ccnc23)CC1)c1ccccc1` [Example 106, (1-{2-[7-(6-Amino-pyrazin-2-yl)-1H-pyrrolo[3,2-b]pyridin-3-yl]-2-oxo-acetyl}-piperidin-4-ylidene)-phenyl-acetonitrile], the pEC50 was over 6.00.
For the molecule `COc1cnc(-n2cc(C)nn2)c2[nH]cc(C(=O)C(=O)N3CCC(=C(c4ccccc4)c4cc(C)n[nH]4)CC3)c12` [Example 137, 1-[4-(1-Phenyl-1-(3-methylpyrazol-5-yl)-methylene)-piperidin-1-yl]-2-(4-methoxy-7-(4-methyl-1,2,3-triazol-1-yl)-6-azaindol-3-yl)-ethane-1,2-dione], the pEC50 is over 6.00.
Next, `C=C(C)c1nnc(C(=C2CCN(C(=O)C(=O)c3c[nH]c4c(-n5cnc(C)n5)ncc(OC)c34)CC2)c2ccccc2)o1` [Example 130, 1-[4-(1-Phenyl-1-(5-isopropenyl-1,3,4-oxadiazol-2-yl)-methylene)-piperidin-1-yl]-2-[4-methoxy-7-(3-methyl-1,2,4-triazol-1-yl)-6-azaindol-3-yl]-ethane-1,2-dione]: over 6.00.
With `COc1ncc(OC)c2c(C(=O)C(=O)N3CCC(=C(c4ccccc4)c4ccc(C#N)cc4)CC3)c[nH]c12` [Example 59] the figure was over 6.00; with `COc1ncc(OC)c2c(C(=O)C(=O)N3CCC(=C(C#N)c4nc5ccccc5s4)CC3)c[nH]c12` [Example 123, 1-[4-(1-Cyano-1-benzothiazol-2-yl-methylene)-piperidin-1-yl]-2-(4,7-dimethoxy-6-azaindol-3-yl)-ethane-1,2-dione], under 5.30.
With `COc1ncc(OC)c2c(C(=O)C(=O)N3CCC(=C(c4ccccc4)c4ccco4)CC3)c[nH]c12` [Example 54] the figure was over 6.00; with `O=C(C(=O)N1CCC(=C(c2ccccc2)c2cc(F)cc(F)c2)CC1)c1c[nH]c2c(Cl)ccnc12` [Example 109, 1-(7-Chloro-1H-pyrrolo[3,2-b]pyridin-3-yl)-2-{4-[(3,5-difluoro-phenyl)-phenyl-methylene]-piperidin-1-yl}-ethane-1,2-dione], over 6.00; with `COc1ncc(OC)c2c(C(=O)C(=O)N3CCC(=C(c4ccccc4)c4nnco4)CC3)c[nH]c12` [Example 51, 1-[4-(1-Phenyl-1-(1,3,4-oxadiazol-2-yl)-methylene)-piperidin-1-yl]-2-(4,7-dimethoxy-6-azaindol-3-yl)-ethane-1,2-dione], over 6.00.
On to `COc1ncc(OC)c2c(C(=O)C(=O)N3CCC(=C(c4ccccc4)c4cccc(F)c4)CC3)c[nH]c12` [Example 67], for which the negative logarithm of the EC50 (pEC50) is over 6.00.
Take `COc1ncc(OC)c2c(C(=O)C(=O)N3CCC(=C(c4ccccc4)c4cccc([N+](=O)[O-])c4)CC3)c[nH]c12` [Example 66]: the negative-log EC50 (pEC50) was over 6.00.
As for `COc1ccnc2[nH]cc(C(=O)C(=O)N3CCC(=C(F)c4ccccc4)CC3)c12` [Example 10], the pEC50 is over 6.00.
Regarding `COc1ncc(OC)c2c(C(=O)C(=O)N3CCC(=C(Cl)c4ccccc4)CC3)c[nH]c12` [Example 5], the pEC50 is over 6.00.
Consider `COc1cnc(-n2ccnn2)c2[nH]cc(C(=O)C(=O)N3CCC(=C(c4ccccc4)c4cccc(CO)c4)CC3)c12` [Example 78, 1-[4-(1-Phenyl-1-(3-hydroxymethylphenyl)-methylene)-piperidin-1-yl]-2-[4-methoxy-7-(1,2,3-triazol-1-yl)-6-azaindol-3-yl]-ethane-1,2-dione], for which the pEC50 is over 6.00.
Take `COc1cnc(-n2ccnn2)c2[nH]cc(C(=O)C(=O)N3CCC(=C(c4ccccc4)c4nnc(C)o4)CC3)c12` [Example 73, 1-[4-(1-Phenyl-1-(5-methyl-1,3,4-oxadiazol-2-yl)-methylene)-piperidin-1-yl]-2-[4-methoxy-7-(1,2,3-triazol-1-yl)-6-azaindol-3-yl]-ethane-1,2-dione]: the pEC50 was over 6.00.
Next, `COc1ccc(C(=C2CCN(C(=O)C(=O)c3c[nH]c4c(OC)ncc(OC)c34)CC2)c2ccccc2)cc1` [Example 62]: over 6.00.
For the molecule `COc1ncc(OC)c2c(C(=O)C(=O)N3CCC(=C(C#N)c4csc5ccccc45)CC3)c[nH]c12` [Example 128, 1-[4-(1-Cyano-1-benzothien-3-yl-methylene)-piperidin-1-yl]-2-(4,7-dimethoxy-6-azaindol-3-yl)-ethane-1,2-dione], the negative-log EC50 (pEC50) was over 6.00.
For `COc1ncc(OC)c2c(C(=O)C(=O)N3CCC(=C(C#CC4CC4)c4ccccc4)CC3)c[nH]c12` [Example 115, 1-[4-(1-Phenyl-1-(2-cyclopropylethyn-1-yl)-methylene)-piperidin-1-yl]-2-(4,7-dimethoxy-6-azaindol-3-yl)-ethane-1,2-dione], the pEC50 is over 6.00.
With `COc1ncc(OC)c2c(C(=O)C(=O)N3CCC(=C(C#N)c4nnc(-c5ccccc5)o4)CC3)c[nH]c12` [Example 122, 1-[4-(1-Cyano-1-(5-phenyl-1,3,4-oxadiazol-2-yl)-methylene)-piperidin-1-yl]-2-(4,7-dimethoxy-6-azaindol-3-yl)-ethane-1,2-dione] the figure was under 5.30.

Source of the values: patent publication US20080188481A1 (priority 2002, published 2008).
